From PMC9147192, “Small Molecule Arranged Thermal Proximity Coaggregation (smarTPCA)—A Novel Approach to Characterize Protein–Protein Interactions in Living Cells by Similar Isothermal Dose–Responses” (International Journal of Molecular Sciences, 2022)

Experiments:
[1] = biological target: T1, MAPK3 (Homo sapiens, UniProt P27361); assay: TPP-TR in living HL-60 cells; type: cell-based; conditions: 20 μM, single set (no replicates)
T1 construct: endogenous in cells; host or cells: HL-60 (ATCC CCL-240)
T1 sequence (P27361 whole entry): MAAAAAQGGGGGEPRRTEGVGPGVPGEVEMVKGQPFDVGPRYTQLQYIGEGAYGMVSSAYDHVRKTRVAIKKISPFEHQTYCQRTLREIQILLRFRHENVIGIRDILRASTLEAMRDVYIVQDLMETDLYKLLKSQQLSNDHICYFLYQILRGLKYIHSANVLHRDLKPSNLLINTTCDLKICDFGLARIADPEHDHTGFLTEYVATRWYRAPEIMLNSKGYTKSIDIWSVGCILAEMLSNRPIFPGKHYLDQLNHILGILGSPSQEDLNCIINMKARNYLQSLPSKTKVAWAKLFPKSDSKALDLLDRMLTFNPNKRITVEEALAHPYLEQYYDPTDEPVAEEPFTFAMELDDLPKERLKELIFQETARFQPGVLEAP
Experimental: HL-60 cells (ATCC No. CCL-240) were expanded to about […] in 80 mL cell culture medium (RPMI-1640 supplemented with 10% (v/v) FBS, 1% (v/v) penicillin-streptomycin and 1% (v/v) L-glutamine solution) and divided into four aliquots (20 mL each, 25 million cells per flask). […] The same volume of DMSO was added to the remaining aliquot serving as the vehicle (DMSO) control. After incubation (1 h, 37 °C, 5% CO2, in cell culture CO2 incubator), the cell suspensions were transferred into 50 mL conical tubes, cell number and viability were determined, and after centrifugation (300 relative centrifugal force (rcf), 3 min, room temperature (r.t.)), the supernatants were completely removed and discarded. The cells were washed using 20 mL Dulbecco’s phosphate-buffered saline (PBS), respectively, by resuspension and centrifugation (300 rcf, 3 min, r.t.). After the complete removal of the supernatants, the cells were transferred into pre-weighed 2 mL Eppendorf tubes using 0.5 mL PBS (r.t.), respectively, for resuspending. After centrifugation (300 rcf, 3 min, r.t.) and removing as much as possible of the supernatants, the cell wet weights were determined.
The suspensions were shortly centrifuged (1 s or less) using a benchtop centrifuge that was equipped with an inset for PCR tubes to release trapped air and to achieve an even liquid level without pelleting the cells. The 100 µL cell suspensions were then temperature treated by a 7 min pre-incubation at r.t., a 3 min incubation at the following different temperatures in the PCR cycler (DNA Engine Tetrad 2, lid temperature 70 °C, gradient block 1: 36–55 °C, gradient block 2: 48–67 °C), and a 3 min post-incubation at r.t. in a metal heating block for uniform heat dissipation.
The cells were lysed by four freeze/thaw cycles consisting of thawing the samples (in a heat block set to 25 °C and shaking at 1250 rpm) accompanied by mixing them several times by inversion and then shock freezing them again in liquid nitrogen. The resulting lysates were kept cold (on ice or 4 °C) from then on. After centrifugation (20,000 rcf, 30 min, 4 °C) to pellet the cell debris together with precipitated and aggregated proteins, the supernatants were recovered and, after determining the total protein concentration (Pierce 660 nm Protein Assay, BSA as standard), the resulting cell extracts containing the fraction of soluble, non-denatured proteins were shock frozen in liquid nitrogen and stored at −80 °C.
For each sample set comprising ten temperature range samples, the same volume of the cell extracts containing the fraction of soluble, non-denatured proteins was used for further analysis. Volume calculation for 30 µg total protein was performed as described for SDS-PAGE and immunoblotting. The calculated volume was respectively transferred into 0.5 mL LoBind Eppendorf tubes and evaporated to dryness using vacuum centrifugation (SpeedVac concentrator, Eppendorf, Hamburg, Germany). The dried proteins were each reconstituted in 10 µL of SDS sample buffer (containing DTT) and incubated for 30 min at 50 °C with shaking (700 rpm). 1.111 µL 1 M iodoacetamide (IAA) was added to each sample (final 100 mM IAA), then the samples were mixed and incubated for 30 min at r.t. in the dark. Sample quality was controlled by SDS-PAGE/silver staining using 0.926 µL of each sample (2.5 µg on average for the two lowest temperature samples; 26-well 4–12% Bis-Tris polyacrylamide gels, Novex NuPAGE, Thermo Scientific; 15 min at 50 V, about 1.5 h at 200 V using the recommended MOPS running buffer).

[2] = tested on: MYLK; set-up: method as in PMID 22037378; conditions: cited from earlier work

Structure (SMILES) | thermal stabilization in melting curves (MAPK3) [1] | activity towards MYLK [2]
Cc1cnc(Nc2ccc(F)cc2Cl)nc1-c1c[nH]c(C(=O)N[C@H](CO)c2cccc(Cl)c2)c1 [ERK 11e] | thermal stabilization | –
C[S+]([O-])c1ccc(-c2nc(-c3ccncc3)c(-c3ccc(F)cc3)[nH]2)cc1 (centres unmarked) [SB203580] | – | inactivity
